Here are results for one compound from patent US20170087104A1, “MEDICAMENT” (AFT Pharmaceuticals Ltd., priority 2013, published 2017).

The nature of data set [1]: Third cross-over study: Maxiclear PE 2.5 (two tablets) vs Sudafed PE (6 adult subjects). It counts as in vivo. The note with it: human, oral, 10 mg; phenylephrine in plasma, mean, untransformed data, n = 6 adult humans.
Data set [2] can be described thus: First crossover study: absorption of phenylephrine, PE HCl alone vs Maxigesic PE (28 adult subjects). It counts as in vivo. The note with it: human, 10 mg; phenylephrine in blood plasma, mean, oral tablets, n = 28 adult humans.

Counter-ions that a name gives are not always drawn.

`CNC[C@H](O)c1cccc(O)c1` [10 mg phenylephrine hydrochloride, phenylephrine hydrochloride]: in data set [1], the concentration peaked (Cmax) at 1.13 ng/mL and the Tmax worked out at 42 min. Besides, in data set [2], the highest level (Cmax) was 0.874 ng/mL and the Tmax was 42 min.

Broadly, the Cmax is the highest concentration seen after dosing. One may read the Tmax as the time at which the peak concentration occurs.
